Test results: patent publication US10040838B2, “CRHR2 peptide agonists and uses thereof” (JANSSEN PHARMACEUTICA NV, priority 2008, dated 2018)
Residues, ends and D or L forms follow the SMILES beside them. *: point of attachment. Succinimide(1-Et,3-yl) = CCN1C(=O)CC(*)C1=O

biological target: T1, human CRHR2 (Homo sapiens, UniProt Q13324); experiment: cAMP assay in h-CRHR2 transfected SK-N-MC cells; type: cell-based; details: Table 13; h-SCP control pA50 minus test compound pA50 within same assay batch
T1 construct: expressed in transfected cells
T1 sequence (Q13324 1-411): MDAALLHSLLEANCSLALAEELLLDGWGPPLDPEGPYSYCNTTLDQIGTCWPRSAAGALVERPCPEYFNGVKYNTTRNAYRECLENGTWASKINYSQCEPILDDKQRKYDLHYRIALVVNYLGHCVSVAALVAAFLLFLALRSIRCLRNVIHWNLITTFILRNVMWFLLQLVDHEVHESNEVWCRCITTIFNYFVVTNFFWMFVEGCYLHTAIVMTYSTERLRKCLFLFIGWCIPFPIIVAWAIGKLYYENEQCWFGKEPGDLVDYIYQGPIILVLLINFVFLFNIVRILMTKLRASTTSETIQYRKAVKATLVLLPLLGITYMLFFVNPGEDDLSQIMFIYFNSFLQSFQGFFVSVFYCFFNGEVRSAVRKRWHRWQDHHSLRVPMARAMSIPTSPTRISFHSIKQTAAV
Description: The concentration required for 50% maximum effect (A50) was 0.4 nM.
Human CRHR1 (accession number X72304) or CRHR2 (accession number U34587) were cloned into pcDNA3.1/Zeo expression vector and stably transfected into SK-N-MC cells by electroporation. Cells were maintained in MEM w/Earl's Salt with 10% FBS, 50 I.U. penicillin, 50 μg/ml streptomycin, 2 mM L-glutamine, 1 mM sodium pyruvate and 0.1 mM nonessential amino acids, 600 μg/ml G418. Cells were grown at 37° C. in 5% CO2.
Cells were plated in 96-well tissue culture dishes (Biocoat from BD Biosciences) overnight at 50,000 cell/well. Cells were washed with PBS then resuspended in DMEM F-12 without phenol red, containing 10 μM isobutylmethylxanthine (IBMX). Cells were incubated with the peptides at concentrations ranging from 1 pM to 10 μM for 60 min at 37° Celsius. […] Forskolin (10 μM), a direct stimulant of adenylate cyclase, was used as positive control. The assays were stopped by the addition of 0.5 M HCl and mixing by orbital rotation for 2 h at 4° Celsius.
To assess the activity of the inventive peptide at the CRHR2, an intracellular cAMP measurement test using a Flash plate radioactive assay (Catalog No. Cus56088; Perkin Elmer, MA, U.S.A.) was employed.
Transfected SK-N-MC cells were plated in 96-well Biocoat tissue culture dishes (BD Biosciences, San Jose, Calif., U.S.A) overnight at 50,000 cell/well. Cells were first washed with PBS and then suspended with DMEM/F-12 without phenol red, containing […]. Suspended cells were transferred into a 96-well flash plate coated with scintillant fluid. Cells were incubated with peptides ranging from […], for 60 min, at 37° Celsius. Forskolin at 10 μM was used as positive control. After ligand stimulation, cells were lysed by the addition of 0.5M HCl and mixed by orbital rotation for 2 h at 4° Celsius in order to release intracellular cAMP into the media.
Media containing released intracellular cAMP was transferred to a 96-well flash plate coated with scintillant fluid containing an anti-cAMP antibody. In this assay, intracellular cAMP competes with ^125I-labeled cAMP binding to the antibody. To generate a standard curve, cAMP ranging from 2.5 to 250 pmoles/ml was included in the experiment. [^125I]-cAMP was measured on a TopCount scintillation counter (Perkin Elmer, MA, U.S.A).
Individual agonist concentration-response curve data were fitted to the Hill equation, see formula below, using GraphPad Prism (Graphpad Software, La Jolla, Calif., U.S.A.), to provide estimates of agonist concentration needed to generate one-half maximal response (A50), and the maximal asymptote (α) and Hill slope (nH) parameters. In this equation, [A] is the agonist concentration and E is the measured effect:
For display purposes the mean fitted parameter estimates were used to generate a single E/[A] curve shown superimposed on the mean experimental data. Potency estimates for agonists, pA50, are expressed as the negative logarithm of the midpoint of each curve and listed with their standard error of measurement (SEM). Logarithm base 10 of the agonist dose ratio (Log DR) values were calculated by subtraction of the test compound pA50 value from the corresponding h-SCP (SEQ ID NO:1) control pA50 value within the same assay batch. The SEM values of the Log DR values are given by the square root of the sum of the squared SEM values of the h-SCP (SEQ ID NO:1) control and test compound pA50 values.
Human and rat peptides (see Table 10) were used on the stimulation of h-CRHR1 or h-CRHR2 transfected SK-N-MC cells in the cAMP flash plate assay. Peptides were incubated for 1 hr at 37° Celsius. Curves were calculated using non-linear regression sigmoidal concentration-response analysis calculation in GraphPad Prism. The so obtained pA50 values are shown in Table 11 in addition to literature values. […]

Log DR	Structure (SMILES)
0.04	CC[C@H](C)[C@H](NC(=O)[C@H](CCC(N)=O)NC(=O)[C@H](C)NC(=O)[C@H](CCSC)NC(=O)[C@H](CC(C)C)NC(=O)[C@H](Cc1c[nH]cn1)NC(=O)[C@H](C)NC(=O)[C@H](CC(N)=O)NC(=O)[C@H](C)NC(=O)[C@H](CSC1CC(=O)N(CC)C1=O)NC(=O)[C@H](C)NC(=O)[C@H](CCC(N)=O)NC(=O)[C@H](C)NC(=O)[C@H](CCCNC(=N)N)NC(=O)[C@H](CC(C)C)NC(=O)[C@H](CC(N)=O)NC(=O)[C@H](CCCCN)NC(=O)[C@H](C)NC(=O)[C@H](CCCCN)NC(=O)[C@H](C)NC(=O)[C@@H](NC(=O)[C@H](CC(N)=O)NC(=O)[C@H](Cc1ccccc1)NC(=O)[C@H](CC(C)C)NC(=O)[C@H](CC(C)C)NC(=O)[C@H](CC(N)=O)NC(=O)[C@H](CCSC)NC(=O)[C@@H](NC(=O)[C@H](CC(N)=O)NC(=O)[C@@H](NC(=O)[C@@H]1CCCN1C(=O)[C@@H](NC(=O)[C@H](CC(=O)O)NC(=O)[C@H](CC(C)C)NC(=O)[C@H](CO)NC(=O)[C@H](CC(C)C)NC(=O)[C@@H](NC(=O)[C@H](Cc1ccccc1)NC(=O)[C@H](CCCCN)NC(=O)[C@@H](N)[C@@H](C)O)[C@@H](C)O)C(C)C)[C@@H](C)O)[C@@H](C)CC)[C@@H](C)CC)C(N)=O (stereo partly shown) [SEQ ID NO: 46, TKFTLSLDVPTNIMNLLFNIAKAKNLRAQAC(-NES)ANAH LMAQI-NH2] (H-TKFTLSLDVPTNIMNLLFNIAKAKNLRAQAC(Succinimide(1-Et,3-yl))ANAHLMAQI-NH2; N-terminus assumed)
−0.03	CC[C@H](C)[C@H](NC(=O)[C@H](CCC(N)=O)NC(=O)[C@H](C)NC(=O)[C@H](CCSC)NC(=O)[C@H](CC(C)C)NC(=O)[C@H](Cc1c[nH]cn1)NC(=O)[C@H](C)NC(=O)[C@H](CC(N)=O)NC(=O)[C@H](C)NC(=O)[C@H](C)NC(=O)[C@H](C)NC(=O)[C@H](CCC(N)=O)NC(=O)[C@H](CSC1CC(=O)N(CC)C1=O)NC(=O)[C@H](CCCNC(=N)N)NC(=O)[C@H](CC(C)C)NC(=O)[C@H](CC(N)=O)NC(=O)[C@H](CCCCN)NC(=O)[C@H](C)NC(=O)[C@H](CCCCN)NC(=O)[C@H](C)NC(=O)[C@@H](NC(=O)[C@H](CC(N)=O)NC(=O)[C@H](Cc1ccccc1)NC(=O)[C@H](CC(C)C)NC(=O)[C@H](CC(C)C)NC(=O)[C@H](CC(N)=O)NC(=O)[C@H](CCSC)NC(=O)[C@@H](NC(=O)[C@H](CC(N)=O)NC(=O)[C@@H](NC(=O)[C@@H]1CCCN1C(=O)[C@@H](NC(=O)[C@H](CC(=O)O)NC(=O)[C@H](CC(C)C)NC(=O)[C@H](CO)NC(=O)[C@H](CC(C)C)NC(=O)[C@@H](NC(=O)[C@H](Cc1ccccc1)NC(=O)[C@H](CCCCN)NC(=O)[C@@H](N)[C@@H](C)O)[C@@H](C)O)C(C)C)[C@@H](C)O)[C@@H](C)CC)[C@@H](C)CC)C(N)=O (stereo partly shown) [SEQ ID NO: 47, TKFTLSLDVPTNIMNLLFNIAKAKNLRC(-NES)QA AANAH LMAQI-NH2] (H-TKFTLSLDVPTNIMNLLFNIAKAKNLRC(Succinimide(1-Et,3-yl))QAAANAHLMAQI-NH2; N-terminus assumed)
0.03	CC[C@H](C)[C@H](NC(=O)[C@H](CCC(N)=O)NC(=O)[C@H](C)NC(=O)[C@H](CCSC)NC(=O)[C@H](CC(C)C)NC(=O)[C@H](Cc1c[nH]cn1)NC(=O)[C@H](C)NC(=O)[C@H](CC(N)=O)NC(=O)[C@H](C)NC(=O)[C@H](C)NC(=O)[C@H](C)NC(=O)[C@H](CCC(N)=O)NC(=O)[C@H](C)NC(=O)[C@H](CCCNC(=N)N)NC(=O)[C@H](CSC1CC(=O)N(CC)C1=O)NC(=O)[C@H](CC(N)=O)NC(=O)[C@H](CCCCN)NC(=O)[C@H](C)NC(=O)[C@H](CCCCN)NC(=O)[C@H](C)NC(=O)[C@@H](NC(=O)[C@H](CC(N)=O)NC(=O)[C@H](Cc1ccccc1)NC(=O)[C@H](CC(C)C)NC(=O)[C@H](CC(C)C)NC(=O)[C@H](CC(N)=O)NC(=O)[C@H](CCSC)NC(=O)[C@@H](NC(=O)[C@H](CC(N)=O)NC(=O)[C@@H](NC(=O)[C@@H]1CCCN1C(=O)[C@@H](NC(=O)[C@H](CC(=O)O)NC(=O)[C@H](CC(C)C)NC(=O)[C@H](CO)NC(=O)[C@H](CC(C)C)NC(=O)[C@@H](NC(=O)[C@H](Cc1ccccc1)NC(=O)[C@H](CCCCN)NC(=O)[C@@H](N)[C@@H](C)O)[C@@H](C)O)C(C)C)[C@@H](C)O)[C@@H](C)CC)[C@@H](C)CC)C(N)=O (stereo partly shown) [SEQ ID NO: 48, TKFTLSLDVPTNIMNLLFNIAKAKNC(-NES)RAQA AANAH LMAQI-NH2] (H-TKFTLSLDVPTNIMNLLFNIAKAKNC(Succinimide(1-Et,3-yl))RAQAAANAHLMAQI-NH2; N-terminus assumed)
0.11	CC[C@H](C)[C@H](NC(=O)[C@H](CCC(N)=O)NC(=O)[C@H](C)NC(=O)[C@H](CCSC)NC(=O)[C@H](CC(C)C)NC(=O)[C@H](Cc1c[nH]cn1)NC(=O)[C@H](C)NC(=O)[C@H](CC(N)=O)NC(=O)[C@H](C)NC(=O)[C@H](C)NC(=O)[C@H](C)NC(=O)[C@H](CCC(N)=O)NC(=O)[C@H](C)NC(=O)[C@H](CCCNC(=N)N)NC(=O)[C@H](CC(C)C)NC(=O)[C@H](CSC1CC(=O)N(CC)C1=O)NC(=O)[C@H](CCCCN)NC(=O)[C@H](C)NC(=O)[C@H](CCCCN)NC(=O)[C@H](C)NC(=O)[C@@H](NC(=O)[C@H](CC(N)=O)NC(=O)[C@H](Cc1ccccc1)NC(=O)[C@H](CC(C)C)NC(=O)[C@H](CC(C)C)NC(=O)[C@H](CC(N)=O)NC(=O)[C@H](CCSC)NC(=O)[C@@H](NC(=O)[C@H](CC(N)=O)NC(=O)[C@@H](NC(=O)[C@@H]1CCCN1C(=O)[C@@H](NC(=O)[C@H](CC(=O)O)NC(=O)[C@H](CC(C)C)NC(=O)[C@H](CO)NC(=O)[C@H](CC(C)C)NC(=O)[C@@H](NC(=O)[C@H](Cc1ccccc1)NC(=O)[C@H](CCCCN)NC(=O)[C@@H](N)[C@@H](C)O)[C@@H](C)O)C(C)C)[C@@H](C)O)[C@@H](C)CC)[C@@H](C)CC)C(N)=O (stereo partly shown) [SEQ ID NO: 49, TKFTLSLDVPTNIMNLLFNIAKAKC(-NES) LRAQA AANAH LMAQI-NH2] (H-TKFTLSLDVPTNIMNLLFNIAKAKC(Succinimide(1-Et,3-yl))LRAQAAANAHLMAQI-NH2; N-terminus assumed)
